Experimental data: patent US12419918B2, “Pediococcus acidilactici CCFM6432 for alleviating depression, food fermented thereby and application thereof” (Jiangnan University, priority 2019, dated 2025)

Experiments:
depressed mice = test: Elevated plus-maze test; type: in vivo, C57BL/6J mice; details: chronic unpredictable mild stress mice; gavage; activities within 10 min
Description: 32 6-week-old male C57BL/6J mice were selected. After one week of adaptation to the environment, the mice were randomly divided into four groups according to body weight: a normal control group, a depression model group, a drug intervention group, and a CCFM6432 intervention group, each containing 8 mice.
Chronic unpredictable stress depression mouse model: 1-2 kinds of stimuli were randomly performed every day, and the performance time of stimuli every day was determined randomly to avoid the circadian rhythm. Each method was used for not more than three times, and the stimuli were performed for five weeks. The stimuli include: (1) fasting for 24 h; (2) water deprivation+empty bottle stimulus for 24 h; (3) tail pinching for 3 min; (4) wet padding for 24 h; (5) immobilization for 1-2 h; (6) 45° tilted cage for 24 h; (7) continuous lighting for 24 h; (8) no padding for 24 h; (9) forced swim for 15 min; and (10) separation for 24 h. […]
At the beginning of the test, a mouse was placed into a maze from the central grid facing a closed arm, and its activities within 10 min were recorded. […] The proportion of time spent in the open arms, the proportion of entries in the open arms, and the total number of entries in the elevated plus maze were calculated. […]

[1] = system: regulatory T cells (Tregs); test: Regulatory T cells (CD4+CD25+Foxp3+) in spleen by flow cytometry; type: in vivo; details: chronic stress mice; sixth weekend
Description: (§1) The mice in Example 2 were euthanized at the sixth weekend. A fresh mouse spleen (about 50 mg) was taken, 5 mL of a pre-chilled PBS buffer was added, and the mouse spleen was cut, ground, and filtered with a 200-mesh nylon sieve to obtain a tissue cell suspension. 2 mL of an erythrocyte lysate was added for lysis for 4 min, and the lysate was removed by centrifugation at room temperature (300×g, 5 min). The obtained cell precipitate was washed with pre-cooled PBS twice, and resuspended with a certain amount of PBS to obtain a lymphocyte suspension. Antibody labeling of regulatory T cells (Tregs) was performed in accordance with the instructions of an eBioscience Mouse Regulatory T cell Staining Kit (Invitrogen Corporation, Carlsbad, CA, USA). The Tregs (CD4+CD25+Foxp3+) were detected by flow cytometry. The contents of IL-1β, IL-6 and TNF-α in the serum were detected with an ELISA kit.

IL-1β, IL-6 and TNF-α = IL-1β, IL-6 and TNF-α in the serum by ELISA kit; type: in vivo; details: chronic stress mice; sixth weekend
Description: as §1

intestinal microbiome = test: 16S rDNA sequencing of the intestinal microbiome from mouse feces; type: in vivo; details: depressed mice feces
Source text: Fresh feces of the mice in Example 2 was taken at the sixth weekend, and total DNA was extracted from the mouse feces sample using an MP feces kit. Specific operation steps are as follows, mainly referring to the kit instructions. The mouse fecal genome was used as a template, V3-V4 fragments of 16S rDNA were amplified using a forward primer 520F (5′-AYTGGGYDTAAAGNG-3′) and a reverse primer 802R (5′-TACNVGGGTATCTAATCC-3′) as primers, and the length of a target fragment was about 247 bp. After the PCR reaction, all PCR samples in which target bands were observed were electrophoresed again, a 2.0% agarose gel was prepared, and electrophoresis was performed at 120 V for 40 min. […] The DNA concentration of the sample was measured according to a Qubit DNA3.0 kit, then a library was constructed according to a TurSeq DNA LT Sample Preparation Kit and instructions thereof, and finally determination was performed on an Illumina Miseq sequencer according to a MiSeq Regent Kit and instructions thereof. […] The sequences with the similarity greater than 97% were defined as a taxonomic unit (Operational Taxonomic Unit, OTU), and the species was determined by a Ribosomal Database Project (RDP) Naïve Bayesclassifier. The α-diversity and β-diversity of the sample were calculated to assess the bacterial diversity of the sample. […] The β-diversity was assessed by principal co-ordinates analysis (PCoA) (FIG. 9C). […]

Structure (SMILES): CNCCC(Oc1ccc(C(F)(F)F)cc1)c1ccccc1 (stereo not shown) [Fluoxetine, fluoxetine]
- entries and time spent in the open arms (depressed mice): had no effect
- immune state (proportion of Tregs in the spleen) [1]: could significantly improve the immune state
- degree of inflammation (IL-1β, IL-6 and TNF-α in the serum) (IL-1β, IL-6 and TNF-α): reduce the degree of inflammation
- structure of the intestinal microbiome (β-diversity, PCoA) (intestinal microbiome): could normalize the structure of the intestinal microbiome
